Tests used:
[1] = biological target: CtermHisTag-mEGFR Triple Mutant - C797S, L858R, T790M (Homo sapiens, UniProt P00533, C797S/L858R/T790M); assay: TR-FRET probe displacement assay, EGFR triple mutant; format: binding; conditions: T790M 1.25 nM, probe 100 nM, 30 mins room temperature
Procedure: (§1) Compounds (dissolved to 100 mM in DMSO) were dispensed into black low volume 384 well assay plates (Corning) over a final concentration range of 100000, 30000, 10000, 3000, 1000, 300, 100, 30, 10, and 3 nM using an Echo 550 (Labcyte). Positive control compound and DMSO as a negative control were dispensed into the first and last well, respectively. […]. Plates were read using a PheraStar FS (BMG Labtech) at Ex337 nm Ex490/520 nm. The data were analysed using Graphpad Prism/Dotmatics Studies Software. Assays conducted in technical replicate and repeated as a biological duplicate.

[2] = biological target: CtermHisTag-mEGFR Wild type (Homo sapiens, UniProt P00533); assay: TR-FRET probe displacement assay, EGFR wild type; format: binding; conditions: EGFR wild type 1.25 nM, probe 100 nM, 30 mins room temperature
Sequence of CtermHisTag-mEGFR Wild type (P00533 25-1210): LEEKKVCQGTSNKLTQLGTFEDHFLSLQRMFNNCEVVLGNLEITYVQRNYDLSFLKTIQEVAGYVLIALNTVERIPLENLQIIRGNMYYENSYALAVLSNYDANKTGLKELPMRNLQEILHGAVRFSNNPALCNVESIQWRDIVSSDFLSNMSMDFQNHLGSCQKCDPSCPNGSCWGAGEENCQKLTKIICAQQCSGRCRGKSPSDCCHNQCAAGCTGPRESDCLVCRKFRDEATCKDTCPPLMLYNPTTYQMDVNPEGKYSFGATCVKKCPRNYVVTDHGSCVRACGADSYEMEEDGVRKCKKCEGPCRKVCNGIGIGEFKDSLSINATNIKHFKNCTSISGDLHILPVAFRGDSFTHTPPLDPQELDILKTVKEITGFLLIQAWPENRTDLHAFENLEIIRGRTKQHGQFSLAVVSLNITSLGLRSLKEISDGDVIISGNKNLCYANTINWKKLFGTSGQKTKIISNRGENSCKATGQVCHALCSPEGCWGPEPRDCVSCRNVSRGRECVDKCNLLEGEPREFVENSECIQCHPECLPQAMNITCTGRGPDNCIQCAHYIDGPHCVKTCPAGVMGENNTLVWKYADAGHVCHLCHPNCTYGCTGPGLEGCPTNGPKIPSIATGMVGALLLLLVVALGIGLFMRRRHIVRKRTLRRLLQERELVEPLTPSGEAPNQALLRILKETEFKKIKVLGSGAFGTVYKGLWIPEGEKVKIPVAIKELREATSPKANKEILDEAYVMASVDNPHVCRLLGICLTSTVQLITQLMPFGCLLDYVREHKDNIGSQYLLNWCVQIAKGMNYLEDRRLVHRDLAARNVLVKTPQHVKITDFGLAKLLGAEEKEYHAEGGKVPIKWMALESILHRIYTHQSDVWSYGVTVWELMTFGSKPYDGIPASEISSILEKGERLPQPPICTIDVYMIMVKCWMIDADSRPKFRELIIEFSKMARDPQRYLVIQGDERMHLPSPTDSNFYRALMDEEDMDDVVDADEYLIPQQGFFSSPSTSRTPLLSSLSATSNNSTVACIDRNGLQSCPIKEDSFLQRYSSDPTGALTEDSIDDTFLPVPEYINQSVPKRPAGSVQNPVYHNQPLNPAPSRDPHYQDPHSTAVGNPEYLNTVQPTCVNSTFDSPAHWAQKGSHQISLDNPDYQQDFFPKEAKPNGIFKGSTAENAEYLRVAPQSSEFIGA
Procedure: as §1

[3] = biological target: T1, Phospho-EGFR (Tyr1068) in H1975 cells (Homo sapiens, UniProt P00533, L858R/T790M); assay: HTRF pEGFR/total EGFR assay in H1975 cells; format: cell-based; conditions: compound 3 hours, ratio pEGFR/total EGFR
T1 construct: host or cells: H1975
T1 sequence (P00533 25-1210 T790M/L858R): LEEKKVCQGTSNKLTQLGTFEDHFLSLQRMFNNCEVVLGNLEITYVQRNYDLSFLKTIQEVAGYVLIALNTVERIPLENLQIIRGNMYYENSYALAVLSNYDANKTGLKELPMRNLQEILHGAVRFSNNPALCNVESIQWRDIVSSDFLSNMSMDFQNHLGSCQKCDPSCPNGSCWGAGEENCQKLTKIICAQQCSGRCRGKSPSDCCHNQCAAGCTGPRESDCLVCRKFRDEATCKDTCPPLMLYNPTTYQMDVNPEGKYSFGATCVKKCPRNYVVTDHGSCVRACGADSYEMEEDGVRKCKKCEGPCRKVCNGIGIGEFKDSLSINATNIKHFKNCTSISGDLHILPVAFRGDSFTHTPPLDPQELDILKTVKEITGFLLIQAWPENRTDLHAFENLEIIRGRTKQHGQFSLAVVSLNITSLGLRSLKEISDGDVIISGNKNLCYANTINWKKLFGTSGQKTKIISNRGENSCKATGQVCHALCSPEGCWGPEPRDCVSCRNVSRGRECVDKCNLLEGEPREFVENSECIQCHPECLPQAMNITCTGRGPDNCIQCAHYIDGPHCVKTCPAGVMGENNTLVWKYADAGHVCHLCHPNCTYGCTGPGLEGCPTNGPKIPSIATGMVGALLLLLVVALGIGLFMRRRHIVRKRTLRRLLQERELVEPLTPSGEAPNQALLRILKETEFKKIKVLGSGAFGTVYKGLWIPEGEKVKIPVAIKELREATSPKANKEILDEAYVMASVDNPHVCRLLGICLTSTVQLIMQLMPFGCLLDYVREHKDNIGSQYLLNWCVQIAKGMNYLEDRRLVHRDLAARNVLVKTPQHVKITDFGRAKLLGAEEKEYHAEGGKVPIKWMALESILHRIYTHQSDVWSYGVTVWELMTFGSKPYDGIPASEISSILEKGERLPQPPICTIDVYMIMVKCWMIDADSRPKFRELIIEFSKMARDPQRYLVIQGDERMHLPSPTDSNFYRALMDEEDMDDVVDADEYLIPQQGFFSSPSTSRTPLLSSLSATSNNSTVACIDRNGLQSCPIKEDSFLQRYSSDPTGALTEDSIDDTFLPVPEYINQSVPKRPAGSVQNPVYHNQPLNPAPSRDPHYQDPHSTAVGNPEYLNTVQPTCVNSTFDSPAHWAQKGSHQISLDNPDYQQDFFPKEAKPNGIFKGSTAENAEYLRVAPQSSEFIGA
Procedure: H1975 cells (ATCC CRL-5908) were plated at 20,000 cells per well in 96 well plates and placed at 37° C. 5% CO2. Once adhered (after 24h) cells were treated with compounds dissolved in DMSO at a final concentration of 0.1% DMSO in media. Compounds were diluted in media then added to cells for 3 hours in duplicate. Compound and media were removed from the cells, then 50ul of HTRF lysis buffer is added (lysis buffer was diluted from 4× stock to 1× in DI water, with 1% blocking agent also added). Cells were lysed on a plate shaker (2000 rpm) for 30 minutes at room temperature. pEGFR expression was monitored using the Cisbio Phospho-EGFR (Tyri068) cellular kit (64EG1 PEH). Total EGFR expression was monitored using the Cisbio Total EGFR cellular kit (64NG1 PEH) as per manufacturer's instructions. Fluorescence emission was read at two different wavelengths (665 nm and 620 nm) on a PheraStar. Results were calculated as ratio of pEGFR/total EGFR and then percentage of 0 uM control.

[4] = biological target: T2, Phospho-EGFR (Tyr1068) in H1975 C797S cells (Homo sapiens, UniProt P00533, C797S/L858R/T790M); assay: HTRF pEGFR/total EGFR assay in H1975 C797S cells; format: cell-based; conditions: H1975 C797S cells (CRISPR), compound 3 hours, ratio pEGFR/total EGFR
T2 construct: endogenous in cells; host or cells: H1975 C797S (CRISPR-edited in house from ATCC CRL-5908)
T2 sequence (P00533 25-1210 T790M/C797S/L858R): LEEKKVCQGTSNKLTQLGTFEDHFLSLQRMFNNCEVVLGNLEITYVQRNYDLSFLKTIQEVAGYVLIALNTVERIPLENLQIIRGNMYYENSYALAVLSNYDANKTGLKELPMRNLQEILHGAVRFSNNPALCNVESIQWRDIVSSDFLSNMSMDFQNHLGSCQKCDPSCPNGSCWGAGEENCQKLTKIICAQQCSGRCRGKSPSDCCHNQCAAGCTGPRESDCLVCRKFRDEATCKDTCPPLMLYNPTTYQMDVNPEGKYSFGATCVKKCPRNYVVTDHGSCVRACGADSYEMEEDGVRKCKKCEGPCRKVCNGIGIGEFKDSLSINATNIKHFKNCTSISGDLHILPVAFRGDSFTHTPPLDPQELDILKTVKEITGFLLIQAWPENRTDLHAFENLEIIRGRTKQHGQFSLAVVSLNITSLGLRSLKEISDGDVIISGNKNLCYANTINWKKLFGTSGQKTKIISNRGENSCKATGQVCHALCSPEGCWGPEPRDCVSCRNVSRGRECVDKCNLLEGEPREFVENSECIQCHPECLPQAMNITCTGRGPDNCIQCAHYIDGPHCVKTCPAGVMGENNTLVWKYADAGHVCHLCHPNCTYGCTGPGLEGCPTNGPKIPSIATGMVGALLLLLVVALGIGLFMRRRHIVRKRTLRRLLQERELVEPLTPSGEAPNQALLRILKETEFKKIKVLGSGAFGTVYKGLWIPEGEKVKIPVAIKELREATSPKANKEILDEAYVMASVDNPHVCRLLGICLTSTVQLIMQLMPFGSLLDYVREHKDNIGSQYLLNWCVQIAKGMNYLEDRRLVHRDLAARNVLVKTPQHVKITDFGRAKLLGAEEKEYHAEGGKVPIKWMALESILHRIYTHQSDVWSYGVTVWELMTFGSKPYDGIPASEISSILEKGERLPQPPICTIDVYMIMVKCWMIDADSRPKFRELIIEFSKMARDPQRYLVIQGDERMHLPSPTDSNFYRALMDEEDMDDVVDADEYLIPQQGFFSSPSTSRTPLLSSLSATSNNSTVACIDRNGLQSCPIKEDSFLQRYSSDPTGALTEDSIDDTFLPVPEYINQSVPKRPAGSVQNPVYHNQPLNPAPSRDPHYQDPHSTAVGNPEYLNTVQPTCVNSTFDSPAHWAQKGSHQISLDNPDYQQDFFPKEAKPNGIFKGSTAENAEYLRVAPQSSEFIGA
Procedure: H1975 C797S cells (ATCC CRL-5908) were genetically engineered by CRISPR editing of EGFR C797S in house and validated by NGS. Cells were plated at 20,000 cells per well in 96 well plates and placed at 37° C. 5% CO2. Once adhered (after 24h) cells were treated with compounds dissolved in DMSO at a final concentration of 0.1% DMSO in media. Compounds were diluted in media then added to cells for 3 hours in duplicate. Compound and media were removed from the cells, then 50 ul of HTRF lysis buffer was added (lysis buffer was diluted from 4× stock to 1× in DI water, with 1% blocking agent also added). Cells were lysed on a plate shaker (2000 rpm) for 30 minutes at room temperature. pEGFR expression was monitored using the Cisbio Phospho-EGFR (Tyr1068) cellular kit (64EG1PEH). Total EGFR expression was monitored using the Cisbio Total EGFR cellular kit (64NG1PEH) as per manufacturer's instructions. Fluorescence emission was read at two different wavelengths (665 nm and 620 nm) on a PheraStar. Results were calculated as ratio of pEGFR/total EGFR and then percentage of 0 uM control.

[5] = biological target: T3, Phospho-EGFR (Tyr1068) in A431 cells (Homo sapiens, UniProt P00533); assay: HTRF pEGFR/total EGFR assay in A431 cells (EGF stimulated); format: cell-based; conditions: compound 2.5 hours then 100 ng/ml EGF 30 mins, ratio pEGFR/total EGFR
T3 construct: endogenous in cells; host or cells: A431
T3 sequence (P00533 25-1210): as the sequence (P00533 25-1210) above
Procedure: Cells were plated at 20,000 cells per well in 96 well plates and placed at 37° C. 5% CO2. Once adhered (after 24h) cells were treated with compounds dissolved in DMSO at a final concentration of 0.1% DMSO in media. Compounds were diluted in media then added to cells for 2.5 hours in duplicate, 100 ng/ml EGF (ThermoFisher, PHG0311 was is added to all compound treated cells as well as a control for 30 mins. Compound and media were removed from the cells, then 50ul of HTRF lysis bufferwas added (lysis bufferwas diluted from 4× stock to 1× in DI water, with 1% blocking agent also added). Cells were lysed on a plate shaker (2000 rpm) for 30 minutes at room temperature. pEGFR expression was monitored using the Cisbio Phospho-EGFR (Tyr1068) cellular kit (64EG1PEH). Total EGFR expression was monitored using the Cisbio Total EGFR cellular kit (64NG1PEH) as per manufacturer's instructions. Fluorescence emission was read at two different wavelengths (665 nm and 620 nm) on a PheraStar. Results were calculated as ratio of pEGFR/total EGFR and then percentage of OuM control.

Structure (SMILES)	IC50 [1]	IC50 [2]	IC50 [3]	IC50 [4]	IC50 [5]
C#Cc1ccnc2nc(Nc3ccccc3OC)ncc12 [Example 1, 5-ethynyl-N-(2-methoxyphenyl)pyrido[2,3-d]pyrimidin-2-amine]	100 to 1000 nM	> 10000 nM			
C#Cc1cc(OC)nc2nc(Nc3ccc(N(C)CCN(C)C)cc3)ncc12 [Example 2, N^1-(2-(dimethylamino)ethyl)-N^4-(5-ethynyl-7-methoxypyrido[2,3-d]pyrimidin-2-yl)-N^1-methylbenzene-1,4-diamine]	100 to 1000 nM	> 10000 nM	1000 to 3000 nM	> 3000 nM	> 3000 nM
C#Cc1cc(OC)nc2nc(Nc3ccc(N4CCN(C)CC4)cc3)ncc12 [Example 3, 5-ethynyl-7-methoxy-N-(4-(4-methylDiDerazin-1-yl)phenyl)vrido[2,3-d]pyrimidin-2-amine]	100 to 1000 nM	> 10000 nM	500 to 1000 nM	1000 to 3000 nM	> 3000 nM
C#Cc1cc(OC)nc2nc(Nc3cccc(CN(C)C4CCC4)c3)ncc12 [Example 4, N-(3-{[cyclobutyl(methyl)amino]methyl}phenyl)-5-ethynyl-7-methoxypyrido[2,3-d]pyrimidin-2-amine]	100 to 1000 nM	> 10000 nM	> 3000 nM	> 3000 nM	> 3000 nM
C#Cc1cc(OC)nc2nc(Nc3ccc(N4CCN(C)CC4)c(N(C)C)c3)ncc12 [Example 5, N^3-{5-ethynyl-7-methoxypyrido[2,3-d]pyrimidin-2-yl}-N^1,N^1-dimethyl-6-(4-methylpiperazin-1-yl)benzene-1,3-diamine]	100 to 1000 nM	> 10000 nM	> 3000 nM	> 3000 nM	> 3000 nM
C#Cc1cc(OC)nc2nc(Nc3ccc(N4CCN(C)CC4)c(Nc4ccccc4)c3)ncc12 [Example 6, N^1-{5-ethynyl-7-methoxypyrido[2,3-d]pyrimidin-2-yl}-4-(4-methylpiperazin-1-yl)-N^3-phenylbenzene-1,3-diamine]	20 to 100 nM	1000 to 10000 nM	1000 to 3000 nM	> 3000 nM	> 3000 nM
C#Cc1cc(OC)nc2nc(Nc3cccc(CN(C)C(C)=O)c3)ncc12 [Example 7, N-{[3-({5-ethynyl-7-methoxypyrido[2,3-d]pyrimidin-2-yl}amino)pheny]methyl}-N-methylacetamide]	100 to 1000 nM	> 10000 nM	> 3000 nM	> 3000 nM	> 3000 nM
C#Cc1cc(OC)nc2nc(Nc3ccc(N4CCN(C)CC4)c(NC4CCC4)c3)ncc12 [Example 8, N^3-cyclobutyl-N^1-{5-ethynyl-7-methoxypyrido[2,3-d]pyrimidin-2-yl}-4-(4-methylpiperazin-1-yl)benzene-1,3-diamine]	20 to 100 nM	1000 to 10000 nM	1000 to 3000 nM	> 3000 nM	> 3000 nM
C#Cc1cc(OC)nc2nc(Nc3cccc(CN(C)C)c3)ncc12 [Example 9, N-{3-[(dimethylamino)methyl]phenyl}-5-ethynyl-7-methoxypyrido[2,3-d] pyrimidin-2-amine]	100 to 1000 nM	> 10000 nM	> 3000 nM	> 3000 nM	> 3000 nM
C#Cc1cc(OC)nc2nc(Nc3ccc(N4CCN(C)CC4)c(NCC4CCC4)c3)ncc12 [Example 10, N^3-(cyclobutylmethyl)-N^1-{5-ethynyl-7-methoxypyrido[2,3-d]pyrimidin-2-yl}-4-(4-methylpiperazin-1-yl)benzene-1,3-diamine]	20 to 100 nM	1000 to 10000 nM	> 3000 nM	> 3000 nM	> 3000 nM

Further lines, results first:

IC50 [1]	IC50 [2]	IC50 [3]	IC50 [4]	IC50 [5]	Structure (SMILES)
100 to 1000 nM	> 10000 nM	> 3000 nM	> 3000 nM	> 3000 nM	C#Cc1cc(OC)nc2nc(Nc3ccc(N4CCN(C)CC4)c(NCc4ccn(C)n4)c3)ncc12 [Example 11, N^1-{5-ethynyl-7-methoxypyrido[2,3-d]pyrimidin-2-yl}-4-(4-methylpiperazin-1-yl)-N^3-[(1-methylpyrazol-3-yl)methyl]benzene-1,3-diamine]
100 to 1000 nM	> 10000 nM	> 3000 nM	> 3000 nM	> 3000 nM	C#Cc1cc(Oc2ccccc2)nc2nc(Nc3ccc(N4CCN(C)CC4)cc3)ncc12 [Example 12, 5-ethynyl-N-[4-(4-methylpiperazin-1-yl)phenyl]-7-phenoxypyrido[2,3-d]pyrimidin-2-amine]
20 to 100 nM	> 10000 nM	1000 to 3000 nM	> 3000 nM	> 3000 nM	C#Cc1cc(OCc2cscn2)nc2nc(Nc3ccc(N4CCN(C)CC4)cc3)ncc12 [Example 13, 5-ethynyl-N-[4-(4-methylpiperazin-1-yl)phenyl]-7-(1,3-thiazol-4-ylmethoxy)pyrido[2,3-d]pyrimidin-2-amine]
100 to 1000 nM	> 10000 nM	> 3000 nM	> 3000 nM	> 3000 nM	C#Cc1cc(OC2CCCCC2)nc2nc(Nc3ccc(N4CCN(C)CC4)cc3)ncc12 [Example 14, 7-(cyclohexyloxy)-5-ethynyl-N-(4-(4-methylpiperazin-1-yl)phenyl)pyrido[2,3-d]pyrimidin-2-amine]
100 to 1000 nM	> 10000 nM	1000 to 3000 nM	> 3000 nM	> 3000 nM	C#Cc1cc(OC2CC2)nc2nc(Nc3ccc(N4CCN(C)CC4)cc3)ncc12 [Example 16, 7-cyclopropoxy-5-ethynyl-N-[4-(4-methylpiperazin-1-yl)phenyl]pyrido[2,3-d]pyrimidin-2-amine]
100 to 1000 nM	> 10000 nM	1000 to 3000 nM	1000 to 3000 nM	> 3000 nM	C#Cc1cc(OC(C)C)nc2nc(Nc3ccc(N4CCN(C)CC4)cc3)ncc12 [Example 17, 5-ethynyl-7-isopropoxy-N-[4-(4-methylpiperazin-1-yl)phenyl]pyrido[2,3-d]pyrimidin-2-amine]
20 to 100 nM	< 1000 nM	< 500 nM	< 500 nM		C#Cc1cc(NC(=O)NC2CCCC2)nc2nc(Nc3cccc(N(C)[C@H]4C[C@@H](CS(C)(=O)=O)C4)c3)ncc12 [Example 119]
20 to 100 nM	< 1000 nM	< 500 nM	< 500 nM		C#Cc1cc(NC(=O)NC2CCCC2)nc2nc(Nc3cccc(N(C)[C@H]4CC[C@@H](CS(C)(=O)=O)CC4)c3)ncc12 [Example 120]
20 to 100 nM	< 1000 nM	500 to 1000 nM	< 500 nM		C#Cc1cc(NC(=O)NC2CCCC2)nc2nc(Nc3cccc(N(C)[C@H]4CC[C@H](CS(C)(=O)=O)CC4)c3)ncc12 [Example 121]

From patent US20260176265A1 (Cancer Research Technology Limited, priority 2022, published 2026)
